In patent US11279733B2, “Peptide antibiotics” (priority 2017, dated 2022):
Converted amounts (≈) assume the structure as drawn. Where two headings read alike, the source gives them in different places. Positions of bridges follow the written chain, without caps; N, C: chain ends. Non-standard residues stand in square brackets, D forms with d. Residues, ends and D or L forms follow the SMILES beside them. *: point of attachment. Decanoyl(3R-OH) = CCCCCCC[C@@H](O)CC(=O)*; dBip = N[C@H](Cc1ccc(-c2ccccc2)cc1)C(=O)O; X6 = CC(C)CCCC(O)CC(=O)*; Dab = NCC[C@H](N)C(=O)O; Dap = NC[C@H](N)C(=O)O

How the values were obtained:
A. baumannii ATCC 19606 = conditions: ATCC 19606
Method: (§1) Bacteria were either obtained from American Type Culture Collection (ATCC; Manassas, Va., USA) or independent academic clinical isolate collections, as listed in Table 18 below. Bacteria were cultured in Nutrient broth (NB; Bacto Laboratories, catalogue No. 234000) or Mueller Hinton broth (MHB; Bacto Laboratories, catalogue No. 211443) at 37° C. overnight with shaking (˜180 RPM). A sample of each culture was then diluted 50-fold in fresh MHB and incubated at 37° C. for 2-3 h with shaking (˜180 RPM). Compound stock solutions were prepared as 0.64 mg/mL or 2.56 mg/mL in water. The compounds, at twice the final desired concentration, were serially diluted 2-fold across the wells of 96-well plates (Polystyrene, Corning, catalogue No. 3370). Mid-log phase bacterial cultures (after 2-3 h incubation) were diluted to a final concentration of 1×10^6 colony forming units (CFU)/mL, and 50 μL was added to each well giving a final cell density of 5×10^5 and a compound concentration range of 32 μg/mL to 0.015 μg/mL (128-0.06 μg/mL against P. aeruginosa PA9704).

A. baumannii GN_093 PmxR = conditions: GN 093 PmxR
Method: as §1

E. coli ATCC 25922 = conditions: ATCC 25922
Method: as §1

K. pneumoniae ATCC 13883 = conditions: ATCC 13883
Method: as §1

[1] = test system: K. pneumoniae ATCC 700603, MDR; conditions: ATCC 700603
Method: as §1

[2] = test system: K. pneumoniae ATCC BAA-2146, NDM-1 pos; conditions: ATCC BAA-2146
Method: as §1

[3] = test system: K. pneumoniae GN_102 PmxR; conditions: GN 102 PmxR
Method: as §1

[4] = test system: K. pneumoniae GN_106, PmxR; conditions: GN 106, PmxR
Method: as §1

P. aeruginosa ATCC 27853 = conditions: ATCC 27853
Method: as §1

[5] = test system: P. aeruginosa GN_043, PmxR; conditions: polymyxin-resistant
Method: as §1

[6] = test system: P. aeruginosa GN_105, PmxR; conditions: GN 105, PmxR
Method: as §1

[7] = test system: S. aureus ATCC 25923, MSSA; conditions: ATCC 25923
Method: as §1

Structure (SMILES)	MIC, A. baumannii ATCC 19606 (A. baumannii ATCC 19606)	MIC A. baumannii GN_093 PmxR (A. baumannii GN_093 PmxR)	MIC, E. coli ATCC 25922 (E. coli ATCC 25922)	MIC, K. pneumoniae ATCC 13883 (K. pneumoniae ATCC 13883)	MIC, K. pneumoniae ATCC 700603, MDR [1]	MIC, K. pneumoniae ATCC BAA-2146, NDM-1 pos [2]	MIC K. pneumoniae GN_102 PmxR [3]	MIC K. pneumoniae GN_106, PmxR [4]	MIC, P. aeruginosa ATCC 27853 (P. aeruginosa ATCC 27853)	MIC P. aeruginosa GN_043, PmxR ([5]; Table 6)	MIC P. aeruginosa GN_105, PmxR [6]	MIC, S. aureus ATCC 25923, MSSA [7]	MIC A. baumannii ATCC 19606 (A. baumannii ATCC 19606)	MIC E. coli ATCC 25922 (E. coli ATCC 25922)	MIC K. pneumoniae ATCC 13883 (K. pneumoniae ATCC 13883)	MIC K. pneumoniae ATCC 700603, MDR [1]	MIC K. pneumoniae ATCC BAA-2146, NDM-1 pos [2]	MIC P. aeruginosa ATCC 27853 (P. aeruginosa ATCC 27853)	MIC P. aeruginosa GN_043, PmxR [5]	MIC S. aureus ATCC 25923, MSSA [7]
CCCCCCC[C@@H](O)CC(=O)N[C@@H](CCCCN)C(=O)N[C@H]1CCNC(=O)[C@H](CC(C)C)NC(=O)[C@H](CCN)NC(=O)[C@H](CCN)NC(=O)[C@H](CC(C)C)NC(=O)[C@@H](Cc2ccccc2)NC(=O)[C@H](CCN)NC1=O [compound 5562, 3(R)OH-nC9CO-L-Lys-cyc[L-Dab-L-Dab-D-Phe-L-Leu-L-Dab-L-Dab-L-Leu]] ({Decanoyl(3R-OH)}-K[Dab][Dab][dF]L[Dab][Dab]L; lactam 2-C)	>32 µg/mL	32 µg/mL (≈ 29.8 µM)	8 µg/mL (≈ 7.46 µM)	8 µg/mL (≈ 7.46 µM)	4 µg/mL (≈ 3.73 µM)	8 µg/mL (≈ 7.46 µM)	4 µg/mL (≈ 3.73 µM)	4 µg/mL (≈ 3.73 µM)	2 µg/mL (≈ 1.86 µM)	4 µg/mL (≈ 3.73 µM)	>32 µg/mL	32 µg/mL (≈ 29.8 µM)								
CCCCCCC[C@@H](O)CC(=O)N[C@@H](CCN)C(=O)N[C@H]1CCNC(=O)[C@H](CC(C)C)NC(=O)[C@H](CN)NC(=O)[C@H](CCN)NC(=O)[C@H](CC(C)C)NC(=O)[C@@H](Cc2ccc(-c3ccccc3)cc2)NC(=O)[C@H](CCN)NC1=O [compound 5565, 3(R)OH-nC9CO-L-Dab-cyc[L-Dab-L-Dab-D-Bip-L-Leu-L-Dab-L-Dap-L-Leu]] ({Decanoyl(3R-OH)}-[Dab][Dab][Dab][dBip]L[Dab][Dap]L; lactam 2-C)		16 µg/mL (≈ 14.5 µM)					32 µg/mL (≈ 28.9 µM)	16 µg/mL (≈ 14.5 µM)			4 µg/mL (≈ 3.62 µM)		8 µg/mL (≈ 7.23 µM)	4 µg/mL (≈ 3.62 µM)	4 µg/mL (≈ 3.62 µM)	8 µg/mL (≈ 7.23 µM)	16 µg/mL (≈ 14.5 µM)	4 µg/mL (≈ 3.62 µM)	2 µg/mL (≈ 1.81 µM)	2 µg/mL (≈ 1.81 µM)
CC(C)CCCC(O)CC(=O)N[C@@H](CCN)C(=O)N[C@H]1CCNC(=O)[C@H](CC(C)C)NC(=O)[C@H](CCN)NC(=O)[C@H](CCN)NC(=O)[C@H](CC(C)C)NC(=O)[C@@H](Cc2ccccc2)NC(=O)[C@H](CCN)NC1=O (stereo partly drawn) [compound 5566, nC5(7-Me)CH(OH)CH2CO-L-Dab-cyc[L-Dab-L-Dab-D-Phe-L-Leu-L-Dab-L-Dab-L-Leu]] (X6-[Dab][Dab][Dab][dF]L[Dab][Dab]L; lactam 2-C)	8 µg/mL (≈ 7.76 µM)	16 µg/mL (≈ 15.5 µM)	4 µg/mL (≈ 3.88 µM)	4 µg/mL (≈ 3.88 µM)	8 µg/mL (≈ 7.76 µM)	16 µg/mL (≈ 15.5 µM)	32 µg/mL (≈ 31.1 µM)	16 µg/mL (≈ 15.5 µM)	4 µg/mL (≈ 3.88 µM)	2 µg/mL (≈ 1.94 µM)	4 µg/mL (≈ 3.88 µM)	2 µg/mL (≈ 1.94 µM)								
